Measurements reported in paper PMC3577903, “Staphylococcus aureus FepA and FepB Proteins Drive Heme Iron Utilization in Escherichia coli” (PLoS ONE, 2013).

Molecular target: T1, FepB (FepB-6His, apo-FepB) (Staphylococcus aureus, UniProt Q2G130)
T1 construct: gene SAOUHSC_00326; Tat signal peptide removed; six-histidine tag kept (pET22b NdeI/XhoI); expressed in E. coli; apo form monomeric after gel filtration (heme-loaded form dimeric)
Test: UV-visible absorbance titration (Soret band […] nm), one-site fit
Format: binding
Conditions: apo-FepB 2.2 µM, 50 mM Tris-HCl pH 8.0, 0.2 M NaCl, room temperature; stoichiometry 0.9; PPIX in DMSO; stoichiometry 0.7

T1 sequence (Q2G130 entry or part of it): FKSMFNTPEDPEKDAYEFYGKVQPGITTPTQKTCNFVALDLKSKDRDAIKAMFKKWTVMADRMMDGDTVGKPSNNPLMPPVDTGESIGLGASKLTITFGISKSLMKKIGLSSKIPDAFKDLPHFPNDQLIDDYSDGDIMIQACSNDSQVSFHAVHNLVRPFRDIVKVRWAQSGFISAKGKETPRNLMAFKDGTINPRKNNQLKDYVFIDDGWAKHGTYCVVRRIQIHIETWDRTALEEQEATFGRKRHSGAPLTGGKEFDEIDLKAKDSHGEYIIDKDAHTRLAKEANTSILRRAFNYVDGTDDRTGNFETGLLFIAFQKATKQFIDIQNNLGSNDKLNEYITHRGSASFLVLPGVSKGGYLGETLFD

C=CC1=C(C)c2cc3[nH]c(cc4nc(cc5[nH]c(cc1n2)c(C)c5CCC(=O)O)C(CCC(=O)O)=C4C)c(C)c3C=C [PPIX]
Kd: 21.1±5,2 nM
